SMILES strings stand for the structures.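 Values below derive from 48-hour exposures of cells grown in 96-well plates, with endpoints linearly interpolated between the two concentrations bracketing the appropriate inhibition level. TGI marks complete inhibition of growth.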 Some results are limits rather than exact numbers.

Among the test systems are UACC-257 melanoma; SF-268 CNS; U251 CNS; OVCAR-5 ovarian; ACHN renal; SK-MEL-28 melanoma; OVCAR-3 ovarian; UO-31 renal; MALME-3M melanoma; LOX IMVI melanoma.
Common to all, as to assay: NCI-60 cell line screen, 48 h

Regarding `C1=NCCNCCN=Cc2ccc(cc2)OCc2cccc(n2)COc2ccc1cc2`, the TGI in the test with UACC-257 melanoma is over 100 µM; in the test with SF-268 CNS, 83.9 µM; in the test on U251 CNS, over 100 µM; with OVCAR-5 ovarian, over 100 µM; with ACHN renal it was 68.7 µM; with SK-MEL-28 melanoma, over 100 µM. Moreover, the TGI in the test on OVCAR-3 ovarian, in the test on UO-31 renal and in the test with MALME-3M melanoma was over 100 µM throughout.
For the compound `CC(=O)OCC(OC(C)=O)C(OC(C)=O)C(C=NN(C(C)=O)S(=O)(=O)c1ccc(/C=C2\NC(=O)NC2=O)cc1)OC(C)=O` (stereo unspecified), the TGI in the test on UACC-257 melanoma, in the test with SF-268 CNS, in the test with U251 CNS, in the test on OVCAR-5 ovarian, with ACHN renal and with OVCAR-3 ovarian was over 100 µM in each case. The TGI with UO-31 renal and in the test with MALME-3M melanoma was over 100 µM each time.
As to `COc1cc2cc(C(=O)N3CC(CCl)c4ccc(O)cc43)[nH]c2c(OC)c1OC` (stereo unspecified), the TGI in the test on SF-268 CNS was 0.145 µM; in the test on OVCAR-5 ovarian it was 0.765 µM; with ACHN renal, 0.000211 µM; in the test with SK-MEL-28 melanoma, 0.00601 µM; with OVCAR-3 ovarian, 0.015 µM; with LOX IMVI melanoma it was 0.136 µM. The TGI stood at 0.0429 µM in the test on UO-31 renal and 0.0178 µM in the test on MALME-3M melanoma.
Take `CC12Nc3ccccc3N1C(=O)c1ccccc12` (stereo unspecified): the TGI with UACC-257 melanoma, in the test on SF-268 CNS, in the test on U251 CNS, in the test with OVCAR-5 ovarian, with ACHN renal and with SK-MEL-28 melanoma was over 100 µM in each case. For the same compound, the TGI with OVCAR-3 ovarian, in the test with LOX IMVI melanoma and in the test on UO-31 renal was over 100 µM each time.
Consider `CCCCCC/C=C\CCCCCCCCCc1cccc(O)c1C(=O)O`, for which the TGI in the test on UACC-257 melanoma, in the test on SF-268 CNS, in the test on U251 CNS, in the test with OVCAR-5 ovarian, with ACHN renal and in the test with SK-MEL-28 melanoma was over 100 µM in each case. Further, the TGI in the test on OVCAR-3 ovarian, in the test with UO-31 renal and with MALME-3M melanoma was over 100 µM throughout.
Regarding `CC1(C)CC(=O)c2c(nc3ccc4ccccc4c3c2-c2ccc(NC(=O)CCCC(=O)Nc3ccc(-c4c5c(nc6ccc7ccccc7c46)CC(C)(C)CC5=O)cc3)cc2)C1`, the TGI with UACC-257 melanoma, in the test with SF-268 CNS, with U251 CNS, in the test on OVCAR-5 ovarian, in the test with ACHN renal and in the test with SK-MEL-28 melanoma was over 100 µM throughout. In addition, the TGI in the test with OVCAR-3 ovarian, in the test on LOX IMVI melanoma and in the test with UO-31 renal was over 100 µM throughout.
Take `COc1ccc2[nH]c3c(c2c1)CCn1c-3nc2ccccc2c1=O`: the TGI in the test with UACC-257 melanoma, with SF-268 CNS, in the test on U251 CNS, in the test with OVCAR-5 ovarian, in the test on ACHN renal and with SK-MEL-28 melanoma was over 25 µM each time. Also, the TGI in the test on UO-31 renal is over 25 µM.
Take `O=C1C2CC=CCC2C(=O)N1n1c(-c2ccccc2)n[nH]c1=O` (stereo unspecified): the TGI with UACC-257 melanoma, in the test with SF-268 CNS, in the test on U251 CNS, in the test with OVCAR-5 ovarian, in the test with ACHN renal and in the test on OVCAR-3 ovarian was over 100 µM throughout. In addition, the TGI in the test with LOX IMVI melanoma, in the test with UO-31 renal and with MALME-3M melanoma was over 100 µM each time.
Regarding `O=c1oc2ccccc2cc1/C=N/N1C(=S)N(c2ccccc2)C(=Nc2ccccc2)C1=Nc1ccccc1`, the TGI in the test with UACC-257 melanoma, in the test with SF-268 CNS, in the test with U251 CNS, in the test on OVCAR-5 ovarian, in the test with ACHN renal and in the test on SK-MEL-28 melanoma was over 100 µM throughout. Besides, the TGI with OVCAR-3 ovarian, with UO-31 renal and with MALME-3M melanoma was over 100 µM each time.
In the case of `CCOC1(COP(=O)(OCc2ccccc2)OCc2ccccc2)COC(COP(=O)(OCc2ccccc2)OCc2ccccc2)(OCC)CO1` (stereo unspecified), the TGI with UACC-257 melanoma, with SF-268 CNS, in the test on U251 CNS, in the test on OVCAR-5 ovarian, in the test on ACHN renal and with SK-MEL-28 melanoma was over 100 µM throughout. Besides, the TGI in the test with OVCAR-3 ovarian, with LOX IMVI melanoma and in the test on MALME-3M melanoma was over 100 µM throughout.
Turning to `COc1ccc(N2C(=O)C3c4[nH]c5ccc(C)cc5c4C4CCC(C)CC4C3C2=O)cc1` (stereo unspecified), the TGI in the test with UACC-257 melanoma, with SF-268 CNS, in the test with U251 CNS, in the test with OVCAR-5 ovarian, in the test on ACHN renal and in the test with OVCAR-3 ovarian was over 100 µM each time. The TGI in the test on LOX IMVI melanoma, in the test on UO-31 renal and in the test with MALME-3M melanoma was over 100 µM each time.
`CC(=O)C1=CSC2[C@H](NC(=O)Cc3ccccc3)C(=O)N2C1C(=O)OC(c1ccccc1)c1ccccc1` (stereo partly specified): the TGI in the test on UACC-257 melanoma, in the test on SF-268 CNS, in the test with SK-MEL-28 melanoma, with OVCAR-3 ovarian, in the test with UO-31 renal and in the test on MALME-3M melanoma was over 100 µM throughout.
On to `CC(=O)Nc1ccccc1SCCSSCCSc1ccccc1NC(C)=O`, for which the TGI was 45 µM in the test with UACC-257 melanoma; over 100 µM in the test with SF-268 CNS; 70.2 µM with U251 CNS; 79.2 µM in the test on OVCAR-5 ovarian; 39.1 µM in the test with ACHN renal; over 100 µM in the test on OVCAR-3 ovarian. Also, the TGI was 38.7 µM in the test on LOX IMVI melanoma, 35.8 µM in the test with UO-31 renal and over 100 µM in the test on MALME-3M melanoma.
On to `CCCC(=O)NC1=C(NCC)C(=O)c2ccccc2C1=O`, for which the TGI in the test on UACC-257 melanoma, with SF-268 CNS, in the test on U251 CNS, in the test on OVCAR-5 ovarian, in the test with ACHN renal and in the test on SK-MEL-28 melanoma was over 100 µM each time. Further, the TGI in the test on OVCAR-3 ovarian and with MALME-3M melanoma was over 100 µM throughout.
With `C/C(=N\Nc1nc2ccccc2s1)c1ncccn1`, the TGI in the test on SF-268 CNS is 5.12 µM; in the test on U251 CNS, over 100 µM; in the test with OVCAR-5 ovarian it was 22.7 µM; in the test on ACHN renal it was 0.177 µM; in the test with SK-MEL-28 melanoma, over 100 µM; in the test with OVCAR-3 ovarian, 2.06 µM. In addition, the TGI in the test with UO-31 renal is 0.395 µM; with MALME-3M melanoma it was over 100 µM.

(Values after PubChem BioAssay (NCI).)
